Experimental data reported in US4599362A, “2-aryl-ethyl ether derivatives and insecticidal and acaricidal agents containing said derivatives” (priority 1980, dated 1986).
Read-outs that look alike come from different tables or passages of the source.

Columns and labels:
[1] = system: resistant green rice leafhopper (collected at Nakagawara); test: Test 3: Effect on Resistant Green Rice Leafhopper; assay type: in vivo, Nephotettix cincticeps Uhler; details: Nephotettix cincticeps, 24 h, read-out: Mortality (%) Green Rice Leafhopper Collected at Nakagawara
Protocol: (§1) To a mixture of 20 parts of the compound of the present invention and 20 parts of Sorpol SM-200 (registered trademark for the product supplied by Toho Chemical Industrial Co., Ltd.) was added 60 parts of xylol, and the mixture was sufficiently blended. The obtained emulsifiable concentrate was diluted at a predetermined concentration with distilled water, and the obtained dilution was used.
(§2) Seedlings (having 2 to 3 leaves) of paddy rice were hydroponically cultured in a pot having a diameter of 5 cm. A chemical dilution having a concentration of 100 or 20 ppm, prepared in the same manner as described in Test 1, was applied with a sprayer at a rate of 3 ml per pot. The treated seedlings were air-dried and covered with a metal net cylinder, and female adults of resistant green rice leafhopper (collected at Nakagawara) and sensitive green rice leafhopper (collected at Chigasaki) were set, respectively, free in the pot at a density of 10 adults per pot. After of 24 hours, the numbers of killed and living adults were counted and the mortality was calculated. The test was made on three pots and the average value was calculated.

[2] = system: sensitive green rice leafhopper (collected at Chigasaki); test: Test 3: Effect on Sensitive Green Rice Leafhopper; assay type: in vivo; details: Nephotettix cincticeps, female adults, 24 hours
Protocol: as §1, §2

[3] = Test 9: Toxicity Test (acute oral, mice); details: mouse, in vivo, po
Protocol: In the fish toxicity test, the test compound was dissolved in acetone to form a 1% solution, and a predetermined amount of the solution was used. In the mouse toxicity test, the test compound of the present invention was dissolved or suspended in corn oil, and a predetermined amount of the solution or suspension was used.
A predetermined amount of a solution or suspension of a test compound in corn oil was orally administered to male mice having a body weight of 19 to 23 g (0.2 ml per 10 g of the body weight). After 7 days, the number of killed mice was counted and the influences on the mice were examined.

[4] = system: third-instar larvae of diamond back moth; test: Test 4: Effect on Diamond Back Moth; assay type: in vivo; details: Plutella xylostella, 24 hours
Protocol: as §1
Cabbage leaves were spread in a plastic cup, and 10 third-instar larvae of diamond back moth were set free in the cup.
A chemical dilution having a concentration of 100 or 20 ppm, prepared in the same manner as described in Test 1, was applied from an applicator at a rate of 3 ml per cup.
After scattering of the chemical dilution, the cup was covered, and after 24 hours, the numbers of killed and living larvae were counted and the mortality was calculated. The test was made on three cups and the average value was calculated.

[5] = system: two-spotted spider mite; test: Test 6: Effect on Two-Spotted Spider mite adults; assay type: in vivo; details: Tetranychus urticae
Protocol: as §1
A kidney bean leaf disc perforated with a cork borer (15 mm in diameter) was placed on water-impreganated absorbent cotton (2 cm×2 cm), and 10 adults of two-spotted spider mite were set free. A chemical dilution having a concentration of 500 ppm was applied with an applicator in an amount of 3 ml.
The leaf disc-placed absorbent cotton was placed in a thermostat chamber maintained at 25° C. After 24 hours, the number of killed adults was counted and the mortality was calculated. The test was made on three leaf discs and the average value was calculated.

[6] = system: German cockroach; test: Test 7: Effect on German Cockroach; assay type: in vivo; details: Blattella germanica, male adults, 24 hours, agonized and killed; for mortality at 10 mg/m2: 10 mg/m^2; for mortality at 50 mg/m2: 50 mg/m^2
Protocol: The bottom face of a high Petri dish having a diameter of 9 cm and a height of 9 cm was treated with 50 or 10 mg/m^2 of a test compound and the dish was air-dried. In order to prevent the adults from escaping from the dish, the inner wall of the dish was treated with butter. Then, 10 male adults of German cockroach were set free in each dish, and the dish was placed in a thermostat chamber maintained at 25° C. After 24 hours, the number of agonized and killed adults was counted. The test was made on two dishes and the average value was calculated.

[7] = system: Second-instar and fifth-instar larvae of tobacco cutworm; test: Test 2: Tobacco Cutworm Larva Dipping Test; assay type: in vivo
Protocol: as §1
A dilution having a chemical concentration of 100 or 20 ppm was prepared in the same manner as described in Test 1.
Second-instar and fifth-instar larvae of tobacco cutworm were dipped in the dilution for 5 seconds, and the excessive dilution was removed by a filter paper. Then, the larvae were set free in a plastic cup and an artificial diet was supplied thereto. The cup was allowed to stand still in a thermostat chamber maintained at 25° C. After 24 hours, the numbers of the killed and living larvae were counted and the mortality was calculated. The test was made on three cups and the result was expressed by an average value.

[8] = 500 ppm, adults, 24 hours, read-out: Mortality (%)
[9] = 20 ppm, second-instar larvae, 24 hours, read-out: Mortality (%) Second-Instar Larvae
[10] = 100 ppm, second-instar larvae, 24 hours, read-out: Mortality (%) Second-Instar Larvae
[11] = topical, 24 h, read-out: Mortality (%) Fifth-Instar Larvae

Structure (SMILES) | mortality at 20 ppm [1] [%] | mortality at 100 ppm [1] [%] | mortality at 20 ppm [2] [%] | mortality at 100 ppm [2] [%] | mortality at 20 ppm [4] [%] | mortality at 100 ppm [4] [%] | mortality at 10 mg/m2 [6] [%] | mortality at 50 mg/m2 [6] [%] | other results
CC(C)(COCc1ccc(F)c(Oc2ccccc2)c1)c1ccc2c(c1)OCO2 [Compound 33, 3-Phenoxy-4-fluorobenzyl 2-(3,4-methylenedioxyphenyl)-2-methylpropyl ether] | 100 | 100 | 100 | 100 |  |  |  |  | 
CC(C)(COCc1ccc(F)c(Oc2ccccc2)c1)c1ccc2ccccc2c1 [Compound 12, 3-Phenoxy-4-fluorobenzyl 2-(naphthalene-2-yl)-2-methylpropyl ether] | 95 | 100 | 80 | 100 |  |  |  |  | LD50 at 168 h [3]: > 500 mg/kg
Cc1ccc(C(C)(C)COCc2cc(Cl)cc(Oc3ccccc3)c2)cc1 [Compound 37, 3-Phenoxy-5-chlorobenzyl 2-(4-methylphenyl)-2-methylpropyl ether] |  |  |  |  |  |  |  |  | LD50 at 168 h [3]: > 500 mg/kg
CCC(CC)(COCc1ccc(F)c(Oc2ccccc2)c1)c1ccc(Cl)cc1 [Compound 35, 3-Phenoxy-4-fluorobenzyl 2-(4-chlorophenyl)-2-ethylbutyl ether] | 100 | 100 | 90 | 100 |  |  |  |  | LD50 at 168 h [3]: > 500 mg/kg
CC(C)(COCc1cc(Oc2ccccc2)ccc1F)c1ccc(Cl)cc1 [Compound 32, 3-Phenoxy-6-fluorobenzyl 2-(4-chlorophenyl)-2-methylpropyl ether] |  |  |  |  |  |  |  |  | LD50 at 168 h [3]: > 500 mg/kg
CC(C)(COCc1ccc(F)c(Oc2ccccc2)c1)c1ccc([N+](=O)[O-])cc1 [Compound 30, 3-Phenoxy-4-fluorobenzyl 2-(4-nitrophenyl)-2-methylpropyl ether] | 90 | 100 | 80 | 100 |  |  |  |  | 
CCOc1ccc(C(CC)COCc2ccc(F)c(Oc3ccccc3)c2)cc1 (centres unmarked) [Compound 47, 3-Phenoxy-4-fluorobenzyl 2-(4-ethoxyphenyl)-butylether] |  |  |  |  | 100 | 100 | 100 | 100 | mortality at 500 ppm [5, 8]: 85%
CC(=O)c1ccc(C(C)(C)COCc2ccc(F)c(Oc3ccccc3)c2)cc1 [Compound 40] |  |  |  |  |  |  |  |  | LD50 at 168 h [3]: > 500 mg/kg
CCOc1cccc(C(C)(C)COCc2ccc(F)c(Oc3ccccc3)c2)c1 [Compound 57] | 100 | 100 | 100 | 100 | 100 | 100 |  |  | 
CCOc1ccc(C(C)(CC)COCc2ccc(F)c(Oc3ccccc3)c2)cc1 (centres unmarked) [Compound 55, 3-Phenoxy-4-fluorobenzyl 2-(4-ethoxyphenyl)-2-methylbutyl ether] |  |  |  |  | 100 | 100 | 100 | 100 | 
Cc1cccc(Oc2cc(COCC(C)(C)c3ccc(Cl)cc3)ccc2F)c1 [Compound 22, 3-(3-Methylphenoxy)-4-fluorobenzyl 2-(4-chlorophenyl)-2-methylpropyl ether] | 75 | 100 | 60 | 100 |  |  |  |  | 
CCOc1ccc(C(COCc2ccc(F)c(Oc3ccccc3)c2)C(C)C)cc1 (centres unmarked) [Compound 62, 3-Phenoxy-4-fluorobenzyl 2-(4-ethoxyphenyl)-3-methylbutyl ether] | 100 | 100 | 100 | 100 | 100 | 100 |  |  | 
CC(C)c1ccc(C(C)(C)COCc2ccc(F)c(Oc3ccccc3)c2)cc1 [Compound 58] | 100 | 100 | 100 | 100 |  |  | 100 | 100 | mortality at 500 ppm [5, 8]: 100%
CC(C)(COCc1ccc(F)c(Oc2ccccc2F)c1)c1ccc(Cl)cc1 [Compound 11, 3-(2-Fluorophenoxy)-4-fluorobenzyl 2-(4-chlorophenyl)-2-methylpropyl ether] | 100 | 100 | 100 | 100 | 100 | 100 | 100 | 100 | mortality at 500 ppm [5, 8]: 100%
CC(C)(COCc1ccc(F)c(Oc2ccccc2)c1)c1cccc(C(F)(F)F)c1 [Compound 17, 3-Phenoxy-4-fluorobenzyl 2-(3-trifluoromethylphenyl)-2-methylpropyl ether] | 100 | 100 | 90 | 100 |  |  |  |  | 
CC(C)(COCc1ccc(F)c(Oc2ccccc2)c1)c1ccc(I)cc1 [Compound 66, 3-Phenoxy-4-fluorobenzyl 2-(4-iodophenyl)-2-methylpropyl ether] | 100 | 100 | 100 | 100 | 90 | 100 | 100 | 100 | mortality at 20 ppm [7, 9]: 90%; mortality at 100 ppm [7, 10]: 100%; mortality at 20 ppm [7, 11]: 75%; mortality at 100 ppm [7, 11]: 100%; mortality at 500 ppm [5, 8]: 100%
CC(C)(COCc1ccc(F)c(Oc2ccccc2)c1)c1ccc(F)c(Cl)c1 [Compound 50, 3-Phenoxy-4-fluorobenzyl 2-(3-chloro-4-fluorophenyl)-2-methylpropyl ether] |  |  |  |  |  |  | 100 | 100 | mortality at 20 ppm [7, 9]: 90%; mortality at 100 ppm [7, 10]: 100%; mortality at 20 ppm [7, 11]: 80%; mortality at 100 ppm [7, 11]: 100%
CCOc1ccc(Oc2cc(COCC(C)(C)c3ccc(OCC)cc3)ccc2F)cc1 [Compound 53, 3-(4-Ethoxyphenoxy)-4-fluorobenzyl 2-(4-ethoxyphenyl)-2-methylpropyl ether] | 100 | 100 | 90 | 100 |  |  | 100 | 100 | 
CCCOc1ccc(C(C)(C)COCc2ccc(F)c(Oc3ccccc3)c2)cc1 [Compound 65] | 100 | 100 | 100 | 100 | 100 | 100 | 100 | 100 | 
CCOP(=S)(OCC)Oc1ccc(=O)n(-c2ccccc2)n1 [(d), 0,0-diethyl-0-(3-oxo-2-phenyl-2H-pyridazin-6-yl)-phosphorothioate, reference compound] |  |  |  |  |  |  |  |  | mortality at 500 ppm ([5]; 24 h): 80%
CCC(C)Oc1ccc(C(C)(C)COCc2ccc(F)c(Oc3ccccc3)c2)cc1 (centres unmarked) [Compound 63] | 100 | 100 | 100 | 100 |  |  | 100 | 100 | mortality at 500 ppm [5, 8]: 100%
